Data as given in patent US12679848B2, “Plasma kallikrein inhibitors” (Merck Sharp & Dohme LLC, priority 2020, dated 2026).

Tests used:
Human plasma kallikrein = target: T1, Human plasma kallikrein (Homo sapiens, UniProt P03952); experiment: Plasma Kallikrein Assay; format: biochemical; details: purified Human plasma kallikrein 0.5 nM, substrate Acetyl-K-P-R-AFC, HEPES pH 7.4; read-out: PKal IC50
T1 construct: yields a heavy chain (371 amino acids) and a light chain (248 amino acids); The active site of plasma kallikrein is contained in the light chain; purchased Enzyme Research Laboratories
T1 sequence (P03952 391-638 limits assumed): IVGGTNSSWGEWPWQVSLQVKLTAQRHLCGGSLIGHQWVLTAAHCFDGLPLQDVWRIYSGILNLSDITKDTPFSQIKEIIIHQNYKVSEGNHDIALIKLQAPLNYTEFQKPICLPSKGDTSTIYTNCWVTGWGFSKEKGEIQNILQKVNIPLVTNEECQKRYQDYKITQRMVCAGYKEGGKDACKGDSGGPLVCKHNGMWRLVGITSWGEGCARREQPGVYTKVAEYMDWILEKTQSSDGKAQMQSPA
T1 sequence (P03952 20-390 partner limits assumed): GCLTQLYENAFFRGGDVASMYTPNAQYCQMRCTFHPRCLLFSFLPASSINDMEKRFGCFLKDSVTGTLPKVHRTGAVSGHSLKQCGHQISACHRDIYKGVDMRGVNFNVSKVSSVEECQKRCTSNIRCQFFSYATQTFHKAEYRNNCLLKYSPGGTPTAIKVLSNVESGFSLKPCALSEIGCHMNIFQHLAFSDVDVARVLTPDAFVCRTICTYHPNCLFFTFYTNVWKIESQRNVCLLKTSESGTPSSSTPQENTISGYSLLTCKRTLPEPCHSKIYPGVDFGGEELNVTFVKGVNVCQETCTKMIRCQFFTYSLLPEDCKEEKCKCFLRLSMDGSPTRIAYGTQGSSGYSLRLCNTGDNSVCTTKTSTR
Summary of the method: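 Purified human plasma kallikrein at 0.5 nM final with substrate Acetyl-K-P-R-AFC at […], in 50 mM HEPES pH 7.4, 150 mM NaCl, 5 mM CaCl2, 0.1% PEG 8000, at rt or 37° C after enzyme-inhibitor equilibration. IC50 from four-parameter logistic fit of fluorescence rate; Ki via Cheng-Prusoff.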

human factor XIa = human factor XIa (Homo sapiens, UniProt P03951); experiment: Factor XIa Assay; format: biochemical; details: human factor XIa 0.04 nM, substrate GPR-AFC, 30 min pre-incubation, 25° C., pH 7.4; read-out: FXIa IC50
Chain of human factor XIa (P03951 388-625 limits assumed): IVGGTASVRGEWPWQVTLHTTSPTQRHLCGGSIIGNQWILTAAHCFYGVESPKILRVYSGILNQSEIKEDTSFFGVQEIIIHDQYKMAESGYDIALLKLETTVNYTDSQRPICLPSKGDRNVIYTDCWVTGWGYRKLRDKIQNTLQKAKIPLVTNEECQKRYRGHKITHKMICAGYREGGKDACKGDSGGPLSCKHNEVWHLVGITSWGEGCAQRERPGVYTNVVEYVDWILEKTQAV
Chain of human factor XIa (P03951 19-387 partner limits assumed): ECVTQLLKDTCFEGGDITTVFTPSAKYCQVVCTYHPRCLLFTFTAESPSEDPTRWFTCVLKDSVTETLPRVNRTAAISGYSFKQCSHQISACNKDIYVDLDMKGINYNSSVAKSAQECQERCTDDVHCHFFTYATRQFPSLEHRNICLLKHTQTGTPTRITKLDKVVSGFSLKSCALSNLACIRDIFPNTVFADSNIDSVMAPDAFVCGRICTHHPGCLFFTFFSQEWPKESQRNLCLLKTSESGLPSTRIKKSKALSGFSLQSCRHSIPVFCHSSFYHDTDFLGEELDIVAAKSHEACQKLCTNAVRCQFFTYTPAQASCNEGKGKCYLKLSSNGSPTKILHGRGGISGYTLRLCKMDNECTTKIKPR

Compound	IC50 (Human plasma kallikrein)	IC50 (human factor XIa)
Nc1c(C(=O)N2CCC[C@@]3(C2)OC(=O)Nc2ccc(Cl)c(F)c23)cnn1-c1ccccc1Oc1ccccc1 [Example 96, (R)-1'-(5-Amino-1-(2-phenoxyphenyl)-1H-pyrazole-4-carbonyl)-6-chloro-5-fluorospiro[benzo[d][1,3]oxazine-4,3'-piperidin]-2(1H)-one]	0.0011 µM	1.37 µM
Nc1c(C(=O)N2CCC[C@@]3(C2)OC(=O)Nc2ccc(Cl)c(F)c23)cnn1-c1ccccc1OC1CCC1 [Example 97, (R)-1'-(5-Amino-1-(2-cyclobutoxyphenyl)-1H-pyrazole-4-carbonyl)-6-chloro-5-fluorospiro[benzo[d][1,3]oxazine-4,3'-piperidin]-2(1H)-one]	0.008 µM	1.29 µM
Nc1c(C(=O)N2CCC[C@@]3(C2)OC(=O)Nc2ccc(Cl)c(F)c23)cnn1-c1ccccc1OCC(F)(F)F [Example 99, (R)-1'-(5-Amino-1-(2-(2,2,2-trifluoroethoxy)phenyl)-1H-pyrazole-4-carbonyl)-6-chloro-5-fluorospiro[benzo[d][1,3]oxazine-4,3'-piperidin]-2(1H)-one]	0.0133 µM	1.08 µM
COc1c(F)cc(F)cc1-n1ncc(C(=O)N2CCC[C@@]3(C2)OC(=O)Nc2ccc(Cl)c(F)c23)c1N [Example 101, (R)-1'-(5-Amino-1-(3,5-difluoro-2-methoxyphenyl)-1H-pyrazole-4-carbonyl)-6-chloro-5-fluorospiro[benzo[d][1,3]oxazine-4,3'-piperidin]-2(1H)-one]	0.0306 µM	1.31 µM
Nc1c(C(=O)N2CCC[C@@]3(C2)OC(=O)Nc2ccc(Cl)c(F)c23)cnn1-c1cc(F)ccc1OC(F)F [Example 106, (R)-1'-(5-Amino-1-(2-(difluoromethoxy)-5-fluorophenyl)-1H-pyrazole-4-carbonyl)-6-chloro-5-fluorospiro[benzo[d][1,3]oxazine-4,3'-piperidin]-2(1H)-one]	0.0348 µM	1.07 µM
Nc1c(C(=O)N2CCC[C@@]3(C2)OC(=O)Nc2ccc(Cl)c(F)c23)cnn1-c1cccc(F)c1OC(F)F [Example 107, (R)-1'-(5-Amino-1-(2-(difluoromethoxy)-3-fluorophenyl)-1H-pyrazole-4-carbonyl)-6-chloro-5-fluorospiro[benzo[d][1,3]oxazine-4,3'-piperidin]-2(1H)-one]	0.0152 µM	0.461 µM
O=C1Nc2ccc(Cl)c(F)c2[C@@]2(CCCN(C(=O)c3cnn(Cc4ccc(F)cc4)c3O)C2)O1 [Example 132, (R)-6-Chloro-5-fluoro-1′-(1-(4-fluorobenzyl)-5-hydroxy-1H-pyrazole-4-carbonyl)spiro[benzo[d][1,3]oxazine-4,3′-piperidin]-2(1H)-one]	0.0178 µM	≥ 10 µM
Nc1c(C(=O)N2CCC[C@@]3(C2)OC(=O)Nc2ccc(Cl)c(F)c23)nnn1Cc1ccccc1 [Example 133, (R)-1′-(5-Amino-1-benzyl-1H-1,2,3-triazole-4-carbonyl)-6-chloro-5-fluorospiro[benzo[d][1,3]oxazine-4,3′-piperidin]-2(1H)-one]	0.19 µM	0.328 µM

Now from value to molecule:

IC50 (Human plasma kallikrein)	IC50 (human factor XIa)	Compound
0.01 µM	0.305 µM	Nc1c(C(=O)N2CCC[C@@]3(C2)OC(=O)Nc2ccc(Cl)c(F)c23)cnn1-c1ccccc1C1CC1 [Example 95, (R)-1'-(5-Amino-1-(2-cyclopropylphenyl)-1H-pyrazole-4-carbonyl)-6-chloro-5-fluorospiro[benzo[d][1,3]oxazine-4,3'-piperidin]-2(1H)-one]
0.0084 µM	0.219 µM	CC1(c2ccccc2-n2ncc(C(=O)N3CCC[C@@]4(C3)OC(=O)Nc3ccc(Cl)c(F)c34)c2N)CC1 [Example 98, (R)-1'-(5-Amino-1-(2-(1-methylcyclopropyl)phenyl)-1H-pyrazole-4-carbonyl)-6-chloro-5-fluorospiro[benzo[d][1,3]oxazine-4,3'-piperidin]-2(1H)-one]
0.009 µM	0.375 µM	COc1cc(F)ccc1-n1ncc(C(=O)N2CCC[C@@]3(C2)OC(=O)Nc2ccc(Cl)c(F)c23)c1N [Example 100, (R)-1'-(5-Amino-1-(4-fluoro-2-methoxyphenyl)-1H-pyrazole-4-carbonyl)-6-chloro-5-fluorospiro[benzo[d][1,3]oxazine-4,3'-piperidin]-2(1H)-one]
0.0038 µM	0.012 µM	Nc1c(C(=O)N2CCC[C@@]3(C2)OC(=O)Nc2ccc(Cl)c(F)c23)cnn1-c1c(Cl)cncc1Cl [Example 102, (R)-1'-(5-Amino-1-(3,5-dichloropyridin-4-y1)-1H-pyrazole-4-carbonyl)-6-chloro-5-fluorospiro[benzo[d][1,3]oxazine-4,3'-piperidin]-2(1H)-one]
0.0101 µM	0.61 µM	Nc1c(C(=O)N2CCC[C@@]3(C2)OC(=O)Nc2ccc(Cl)c(F)c23)cnn1-c1ccnc2ccccc12 [Example 103, (R)-1'-(5-Amino-1-(quinolin-4-yl)-1H-pyrazole-4-carbonyl)-6-chloro-5-fluorospiro[benzo[d][1,3]oxazine-4,3'-piperidin]-2(1H)-one]
0.0095 µM	0.562 µM	Nc1c(C(=O)N2CCC[C@@]3(C2)OC(=O)Nc2ccc(Cl)c(F)c23)cnn1-c1ccnc2c(F)cccc12 [Example 104, (R)-1'-(5-Amino-1-(8-fluoroquinolin-4-y1)-1H-pyrazole-4-carbonyl)-6-chloro-5-fluorospiro[benzo[d][1,3]oxazine-4,3'-piperidin]-2(1H)-one]
0.0132 µM	0.421 µM	Cc1cnccc1-n1ncc(C(=O)N2CCC[C@@]3(C2)OC(=O)Nc2ccc(Cl)c(F)c23)c1N [Example 105, (R)-1'-(5-Amino-1-(3-methylpyridin-4-y1)-1H-pyrazole-4-carbony1)-6-chloro-5-fluorospiro[benzo[d][1,3]oxazine-4,3'-piperidin]-2(1H)-one]
0.0396 µM	1.69 µM	COc1cccnc1-n1ncc(C(=O)N2CCC[C@@]3(C2)OC(=O)Nc2ccc(Cl)c(F)c23)c1N [Example 108, (R)-1'-(5-Amino-1-(3-methoxypyridin-2-y1)-1H-pyrazole-4-carbonyl)-6-chloro-5-fluorospiro[benzo[d][1,3]oxazine-4,3'-piperidin]-2(1H)-one]
0.338 µM	> 10 µM	Cn1ncc(C(=O)N2CCC[C@@]3(C2)OC(=O)Nc2ccc(Cl)c(F)c23)c1N [Example 109, (R)-1'-(5-Amino-1-methyl-1H-pyrazole-4-carbonyl)-6-chloro-5-fluorospiro[benzo[d][1,3]oxazine-4,3'-piperidin]-2(1H)-one]
0.0661 µM	> 10 µM	Nc1c(C(=O)N2CCC[C@@]3(C2)OC(=O)Nc2ccc(Cl)c(F)c23)cnn1-c1cccc(Cl)c1 [Example 110, (R)-1'-(5-Amino-1-(3-chlorophenyl)-1H-pyrazole-4-carbonyl)-6-chloro-5-fluorospiro[benzo[d][1,3]oxazine-4,3'-piperidin]-2(1H)-one]
0.0803 µM	2.99 µM	Cc1ccc(-n2ncc(C(=O)N3CCC[C@@]4(C3)OC(=O)Nc3ccc(Cl)c(F)c34)c2N)cc1 [Example 111, (R)-1'-(5-Amino-1-(p-toly1)-1H-pyrazole-4-carbonyl)-6-chloro-5-fluorospiro[benzo[d][1,3]oxazine-4,3'-piperidin]-2(1H)-one]
